The conditions of series [1]: counterion acid; cited from earlier work.
For series [2] the following is noted: counterion acid; cited from earlier work. This is another data set of the same source.
Series [3] can be described thus: Hydration studies in IPA/water at 3 water activities, XRPD. Format: physicochemical.
The nature of series [4]: physchem. The procedure:
25 mL of 0.2 M potassium hydrogen phthalate solution and 2.50 mL of 0.2 M sodium hydroxide solution were diluted to 100 mL using deionized water. The pH was adjusted as required, using either potassium hydrogen phthalate or sodium hydroxide solution.
25 mL of 0.2 M potassium phosphate monobasic solution and 11.20 mL of 0.2 M sodium hydroxide solution were diluted to 100 mL using deionized water. The pH was adjusted as required, using either potassium phosphate monobasic or sodium hydroxide solution.

Series [5] in a line: Dynamic Vapor Sorption (DVS). The conditions noted are these: for change in mass (DVS): between 20-90% RH. Format: physicochemical. The procedure: Approximately 10 mg of sample was placed into a mesh vapor sorption balance pan and loaded into a DVS-1 dynamic vapor sorption balance by Surface Measurement Systems. The sample was subjected to a ramping profile from 40-90% relative humidity (RH) at 10% increments, maintaining the sample at each step until a stable weight had been achieved (99.5% step completion). After completion of the sorption cycle, the sample was dried using the same procedure to 0% RH and then a second sorption cycle back to 40% RH. The weight changes during the sorption/desorption cycles were plotted, allowing the hygroscopic nature of the sample to be determined. XRPD analysis was then carried out on the remaining solid.

Series [6] can be described thus: Salt disproportionation studies (slurry in deionized water, pH and XRPD). Type of series: physicochemical. To be noted: 20° C. Here is the method: The scaled-up tosylate and fumarate salts were subjected to salt disproportionation studies at ambient temperature. The following observations and results were obtained during these disproportionation studies: • After stirring the tosylate salt at 20° C. in deionized water for 30 min, pH=2.58.

The nature of series [7]: 7-day stability testing (40° C./75% RH, 80° C., ambient temperature and light), XRPD and HPLC. Type of series: physicochemical. The conditions noted are these: 7 days. The procedure: Approximately 30 mg of the tosylate and fumarate salts were subjected to 7-day stability testing under the following conditions: • 40° C./75% RH • 80° C. • Ambient temperature and light After 7 days under the stated conditions, XRPD and HPLC analysis was carried out on the resultant solid material. Salt Disproportionation Studies
Approximately 30 mg of the tosylate and fumarate salts were subjected to 7-day stability testing under the following conditions: • 40° C./75% RH • 80° C. • Ambient temperature and light • After 7 days under the stated conditions, XRPD and HPLC analysis was carried out on the resultant solid material. Hydration Studies
The scaled-up tosylate and fumarate salts were subjected to 7-day stability testing at 40° C./75% RH, 80° C. and ambient temperature and light.

Series [8] is described as follows: Primary salt screen: stability testing of crystalline hits for 72 hours at 40° C./75% RH, post-stability XRPD and HPLC.
Procedure: The primary salt screen was carried out on 35 mg scale in a glovebag under nitrogen using >3 equivalents of the counterions in the appropriate solvent. The contents of the vials were temperature cycled from 30 to 5° C. Any solids were isolated and analyzed by XRFD. • Approximately 35 mg of received material was weighed into each vial, in a glovebag under nitrogen. If amorphous material or counterion isolated, material was returned to vial and solids re-dissolved through addition of an appropriate solvent. Further temperature cycling was then employed, followed by anti-solvent addition and evaporation if required. Solids, if present, were isolated by centrifugation and analyzed by XRPD.
Setting [9] is: 40° C./75% RH, listed as fumarate.
[10] abbreviates: 40° C./75% RH, listed as tosylate.

Counter-ions that a name gives are not always drawn. Where a SMILES comes first, the peptide text is derived from it. [ ]: non-standard residue; d: D form. Dmt = Cc1cc(O)cc(C)c1C[C@H](N)C(=O)O

As usually defined, the LogP is the decadic logarithm of the partition coefficient of the neutral form, usually between octanol and water. What is called thermodynamic solubility is the concentration in solution at equilibrium with solid. One may read the solubility as how much of the substance goes into solution per volume. The low end stands for a poorly soluble substance, the high end for a readily soluble substance.

Turning to `O=C(O)c1ccc2ccccc2c1O` [1-Hydroxy-2-naphthoic], the LogP in series [1] is 3.29.

On to `O=C(O)CCCCC(=O)O` [Adipic], for which the log partition coefficient (LogP) in series [1] is on record as 0.08.

For `CC(C)CCC[C@@H](C)[C@H]1CC[C@H]2[C@@H]3CC=C4C[C@@H](OS(=O)(=O)O)CC[C@]4(C)[C@H]3CC[C@]12C` [Cholesteryl sulfate], the LogP in series [1] is recorded as 4.45.

`O=C[C@H](O)[C@@H](O)[C@H](O)[C@H](O)C(=O)O` [D-Glucuronic acid]: in series [1], the LogP is on record as −1.49.

As for `C[C@H](CCC(=O)O)[C@H]1CC[C@H]2[C@@H]3CC[C@@H]4C[C@H](O)CC[C@]4(C)[C@H]3C[C@H](O)[C@]12C` [Deoxycholic acid], the “pKa 1” value in series [2] is listed as 4.76.

For the compound `CCS(=O)(=O)O` [Ethanesulfonic acid], the lipophilicity (LogP) in series [1] is −1.36.

With `Cc1cc(O)cc(C)c1C[C@H](NC(=O)[C@H](N)CCCNC(=N)N)C(=O)N[C@@H](CCCCN)C(=O)N[C@@H](Cc1ccccc1)C(N)=O` [Fumarate Pattern 4] (H-[dR][Dmt]KF-NH2), the “XRPD analysis of the isolated solids after hydration studies” value in series [3] (aw=0.368 and 0.608, 20° C., 24 h) is reported as “Pattern 3”; in series [3] (aw=0.911, 20° C., 24 h), “Pattern 5”. Besides, the “Solid Form isolated after solubility study” value (shortened to “Solid Form isolated”) in series [4] (buffer pH 1.2, 20° C., 24 h, listed as Fumarate) was “Fumaric acid”; in series [4] (buffer pH 1.2, 20° C., 24 h, listed as fumarate salt), “fumaric acid only”; in series [4] (buffer pH 4.5, 20° C., 24 h, listed as fumarate salt), “Pattern 5”; in series [4] (buffer pH 6.8, 20° C., 24 h, listed as fumarate salt), “No solid was isolated”. In series [5] (listed as fumarate salt), the “change in mass (DVS)” value is “ca. 11.5%”. Further, the “Post-DVS XRPD analysis” value in series [5] (listed as fumarate salt) is recorded as “remained Pattern 4”. Besides, the “hygroscopicity by DVS analysis” value in series [5] (listed as fumarate salt) was “hygroscopic”. Moreover, the pH of slurry in series [6] (30 min, listed as fumarate salt) is 3.50; in series [6] (20 h, listed as fumarate salt), 3.48. Besides, in series [6] (20 h, listed as fumarate salt), the “XRPD analysis of the post-slurry material” value is on record as “changed to a new pattern (designated Pattern 5)”. Further, the “Purity by HPLC” value in series [7] (setting [9]) turned out to be 97.5%; in series [7] (80° C., listed as Fumarate), 83.0%; in series [7] (ambient temperature and light), 99.6%. Also, the results for the “decrease in purity after stability testing” value in series [7] (setting [9]) and in series [7] (80° C.) were “ca. 2.4%” and “ca. 17%”, respectively. The “Post-stability XRPD analysis” value in series [7] (80° C.) was “loss of crystallinity”; in series [7] (lower temperatures: 40° C./75% RH or ambient conditions), “unchanged”.

In the case of `N[C@@H](CCC(=O)O)C(=O)O` [L-Glutamic acid], in series [1], the log partition coefficient (LogP) is on record as −1.43.

Turning to `O=C(O)C[C@H](O)C(=O)O` [L-Malic], the LogP in series [1] is −1.26.

For `CCCCCCCCCCCC(=O)O` [Lauric], the “pKa 1” value in series [2] was 4.90. Besides, in series [1], the log partition coefficient (LogP) is 4.6.

Regarding `O=C(O)/C=C\C(=O)O` [Maleic], the LogP in series [1] was −0.01.

As to `O=C(O)C(=O)O` [Oxalic], the lipophilicity (LogP) in series [1] is −1.19.

In the case of `Cc1cc(O)cc(C)c1C[C@H](NC(=O)[C@H](N)CCCNC(=N)N)C(=O)N[C@@H](CCCCN)C(=O)N[C@@H](Cc1ccccc1)C(N)=O` [Tosylate Pattern 1] (H-[dR][Dmt]KF-NH2), in series [3] (aw=0.368, 0.608 and 0.911, 20° C., 25 h), the “XRPD analysis of the isolated solids after hydration studies” value is reported as “unchanged”. Besides, in series [8] (40° C./75% RH, 72 hours), the “XRPD analysis of samples after stability testing” value is “improved in crystallinity” and the “purity by HPLC analysis of samples after stability testing” value was found to be 80.6%. For the same compound, the “Purity by HPLC (post-stability)” value in series [8] (72 hours at 40° C./75% RH) came out at 80.6. For the same compound, in series [8] (72 hours at 40° C./75% RH, P1 = Pattern 1), the “Same XRPD, post-stability” value is recorded as “yes”. This compound also showed a thermodynamic solubility at 24 h in series [4] (aqueous buffer pH 1.2, pH 1.2, Concentration by HPLC (thermodynamic solubility), buffer pH 1.2, 20° C., 24 h) of 23.8 mg/mL. The compound also had a solubility at 24 h in series [4] (aqueous buffers pH 1.2, 4.5 and 6.8) of about 25 mg/mL. Further, the “Solid Form isolated” value in series [4] (buffer pH 1.2, 20° C., 24 h, listed as Tosylate) is recorded as “Pattern 1”. For the same compound, the “Solid Form isolated” value in series [4] (buffer pH 4.5, 20° C., 24 h) is reported as “Pattern 1”. Also, the “Solid Form isolated” value in series [4] (buffer pH 6.8, 20° C., 24 h) is recorded as “Pattern 1”. For the same compound, the “XRPD analysis of the isolated solids after thermodynamic solubility studies” value in series [4] (each buffer solution (pH 1.2, 4.5, 6.8), 20° C., 24 h) is listed as “unchanged”. Moreover, in series [5] (listed as tosylate salt), the “change in mass (DVS)” value is on record as “ca. 1.3%”, the “Post-DVS XRPD analysis” value is reported as “remained Pattern 1” and the “hygroscopicity by DVS analysis” value was “slightly hygroscopic”. Also, the pH of slurry in series [6] (30 min, listed as tosylate salt) came out at 2.58. In addition, in series [6] (20 h, listed as tosylate salt), the “XRPD analysis of the post-slurry material” value is given as “no change to the input Pattern 1 material” and the pH of slurry came out at 2.53. In series [7] (40° C./75% RH, 80° C. and ambient temperature and light), the “Post-stability XRPD analysis” value was “unchanged”. In series [7] (setting [10]), the “Purity by HPLC” value worked out at 98.5% and the “decrease in purity after stability testing” value is on record as “ca. 1.3%”. Further, the “Purity by HPLC” value in series [7] (80° C., listed as Tosylate) turned out to be 99.4%.

For `Cc1ccc(S(=O)(=O)O)cc1` [p-Toluenesulfonic acid], the log partition coefficient (LogP) in series [1] is listed as 0.93.

(Values after patent publication US10683326B2, “Crystalline salt forms” (Stealth BioTherapeutics Corp., priority 2016, dated 2020).)
